Source: patent US20240325420A1, “COMPOSITION INCLUDING PAEONIFLORIN FOR PREVENTION OR TREATMENT OF CACHEXIA AND MUSCLE LOSS” (CHUNG ANG UNIVERSITY INDUSTRY ACADEMIC COOPERATION …, priority 2021, published 2024)

Columns and labels:
[1] = tested on: C57BL/6 mice with Lewis lung carcinoma-induced cachexia; assay: Body weight and muscle mass in C57BL/6 mice with Lewis lung carcinoma-induced cachexia; format: in vivo
Description: (§1) As the experimental animals, 4-week-old female C57BL/6 mice and Balb/c mice weighing 18 g to 20 g were purchased from Raon Bio (Yongin, Korea), acclimatized in the laboratory animal facility for one week, and then used in the experiment. During the experiment period, the animals were provided with solid feed and water ad libitum, and the breeding room was maintained at a temperature of 20° C. to 24° C. and a relative humidity of 55% to 65% with a 12-hr light/12-hr dark cycle.
(§2) Mice were divided into a control group and a cachexia-induced group, and the cachexia-induced group was subdivided into a tumor cell-injected group, a tumor cell-injected and existing drug (MA, megestrol acetate)-administered group, and tumor cell-injected and paeoniflorin (Pae)-administered groups. Each group consisted of 10 animals.
Each mouse of the control group was injected subcutaneously with 100 μL of saline solution. For the cachexia-induced groups, Lewis lung carcinoma cells (C57BL/6 mice) or colon-26 carcinoma cells (Balb/c mice) were injected subcutaneously into the flank area of each mouse at a dose of 10^6 cells/100 μL/mouse. After 2 weeks, when a distinct tumor was formed, the tumor cell-injected group was orally administered distilled water, the tumor cell-injected and existing drug-administered group was orally administered megestrol acetate (MA), which is currently most commonly prescribed for cancer cachexia patients in clinical practice, at a dose of 160 mg/kg (=800 mg [daily human dose]/60 kg [average human body weight]×12 [dose equivalent factor based on human:mouse body surface area ratio], once daily for 9 days, and the tumor cell-injected and paeoniflorin-administered groups were orally administered paeoniflorin (prepared in Example 1) once daily for 9 days at doses of 5 (Pae 5 group), 10 (Pae 10 group) and 20 (Pae 20 group) mg/kg, respectively. After completion of 9 days of administration, the muscle strength of the mice was measured using a grip strength test device (Bioseb, USA), and the endurance of the mice was measured using a treadmill device (Columbus Instrument, USA).
After completion of the experiment, the mice were euthanized, blood was collected therefrom, the body weight excluding tumors, and the weights of the hind limb gastrocnemius muscle and quadriceps muscle were measured. GDF-15 in the serum was quantified by ELISA.

[2] = tested on: Balb/c mice with colon-26 carcinoma-induced cachexia; assay: Muscle strength and endurance in Balb/c mice with colon-26 carcinoma-induced cachexia; format: in vivo; conditions: colon-26 carcinoma-injected, paeoniflorin orally for 9 days
Description: as §1, §2
Each mouse of the control group was injected subcutaneously with 100 μL of saline solution. For the cachexia-induced groups, Lewis lung carcinoma cells (C57BL/6 mice) or colon-26 carcinoma cells (Balb/c mice) were injected subcutaneously into the flank area of each mouse at a dose of 10^6 cells/100 μL/mouse. […] After completion of 9 days of administration, the muscle strength of the mice was measured using a grip strength test device (Bioseb, USA), and the endurance of the mice was measured using a treadmill device (Columbus Instrument, USA).

SMILES: C[C@@]12C[C@@]3(O)O[C@@H](O1)[C@]1(COC(=O)c4ccccc4)[C@H]3C[C@@]12O[C@@H]1O[C@H](CO)[C@@H](O)[C@H](O)[C@H]1O [paeoniflorin]
- body weight ([1]; C57BL/6 mice, Lewis lung carcinoma-injected, paeoniflorin orally once daily for 9 days vs Lewis lung carcinoma-injected group, FIG. 14A): significantly increased
- weight of gastrocnemius muscle ([1]; C57BL/6 mice, Lewis lung carcinoma-injected, paeoniflorin orally once daily for 9 days vs Lewis lung carcinoma-injected group, FIG. 14B): significantly increased
- weight of quadriceps muscle ([1]; C57BL/6 mice, Lewis lung carcinoma-injected, paeoniflorin orally once daily for 9 days vs Lewis lung carcinoma-injected group, FIG. 14C): significantly increased
- effect on body weight and muscle mass compared with megestrol acetate (MA) ([1]; Lewis lung carcinoma C57BL/6 mice, paeoniflorin 10 to 20 mg/kg/day vs megestrol acetate 160 mg/kg/day): better effect
- muscle strength ([2]; FIG. 17A): significantly increased
- endurance ([2]; FIG. 17B): significantly increased
